Where a SMILES comes first, the peptide text is derived from it. Bridges are numbered along the chain shown (N, C = ends). [ ]: non-standard residue; d: D form. The star is where a group is joined. ξ: configuration not given here. Phe(4-COOH) = N[C@@H](Cc1ccc(C(=O)O)cc1)C(=O)O; Bip = N[C@@H](Cc1ccc(-c2ccccc2)cc1)C(=O)O; Phe(3-Me) = Cc1cccc(C[C@H](N)C(=O)O)c1; Phe(4-F) = N[C@@H](Cc1ccc(F)cc1)C(=O)O; Val(3-OH) = CC(C)(O)[C@H](N)C(=O)O; Cha = N[C@@H](CC1CCCCC1)C(=O)O; Thr(3ξ) = CC(O)[C@H](N)C(=O)O; Carboxymethyl = O=C(O)C*; NMeA = CN[C@@H](C)C(=O)O; Aun = NCCCCCCCCCCC(=O)O; Dab = NCC[C@H](N)C(=O)O; AEEA = NCCOCCOCC(=O)O
Target: T1, PD-1/PD-L1 interaction (PE-labeled human PD-L1-Ig binding to Jurkat cell line over-expressing human PD-1) (Homo sapiens, UniProt Q15116)
T1 construct: expressed in transfected cells; host or cells: Jurkat
Test: Jurkat-PD-1 Cell Binding High-Content Screening Assay (CBA)
Details: PE-labeled PD-L1-Ig 20 nM final, Jurkat-hPD-1 cells; read-out: Jurkat HPD1 PDL1 IC50
Outline: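 Jurkat cells overexpressing human PD-1 (8×10^3/well, DMEM + 10% FCS) preincubated with compound 2 h at 37 °C, then PE-labelled human PD-L1-Ig (20 nM final) for 1 h. Cells fixed in paraformaldehyde with Hoechst 33342; bound PD-L1 quantified by high-content imaging.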

T1 sequence (Q15116 25-288): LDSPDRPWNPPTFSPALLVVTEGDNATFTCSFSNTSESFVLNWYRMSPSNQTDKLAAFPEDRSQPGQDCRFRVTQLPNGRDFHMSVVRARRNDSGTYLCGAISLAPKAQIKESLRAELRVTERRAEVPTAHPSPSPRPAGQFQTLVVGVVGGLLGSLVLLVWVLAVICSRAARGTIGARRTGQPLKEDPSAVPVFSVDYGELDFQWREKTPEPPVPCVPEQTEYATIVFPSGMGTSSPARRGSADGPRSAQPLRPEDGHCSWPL

| Compound | IC50 [nM] |
| --- | --- |
| Cc1cccc(C[C@@H]2NC(=O)[C@H](CC(=O)O)NC(=O)[C@H](Cc3ccc(OCC(=O)O)cc3)NC(=O)[C@H](CCN)NC(=O)CSC[C@@H](C(=O)N[C@@H](CCN)C(=O)NCCOCCOCC(=O)NCCCCCCCCCCC(=O)O)NC(=O)[C@H](Cc3cnc[nH]3)NC(=O)[C@H](C(C)(C)O)NC(=O)[C@H](CC3CCCCC3)NC(=O)[C@H](CCN)NC(=O)[C@@H](CC(C)C)NC(=O)[C@H](C)N(C)C(=O)[C@H](Cc3ccc(OCC(=O)O)cc3)NC(=O)[C@H](Cc3ccc(-c4ccccc4)cc3)NC(=O)[C@H](Cc3ccc(OCC(=O)O)cc3)NC2=O)c1 [Example 2551] ({CH2CO}-[Dab]Y(Carboxymethyl)D[Phe(3-Me)]Y(Carboxymethyl)[Bip]Y(Carboxymethyl)[NMeA][dL][Dab][Cha][Val(3-OH)]HC[Dab][AEEA][Aun]-OH; thioether N-14) | 17.5 |
| Cc1cccc(C[C@@H]2NC(=O)[C@H](CC(=O)O)NC(=O)[C@H](Cc3ccc(C(=O)O)cc3)NC(=O)[C@H](CCN)NC(=O)CSC[C@@H](C(=O)N[C@@H](CCN)C(=O)NCCOCCOCC(=O)NCCCCCCCCCCC(=O)O)NC(=O)[C@H](CCC(=O)O)NC(=O)[C@H](C(C)O)NC(=O)[C@H](CC3CCCCC3)NC(=O)[C@H](CCN)NC(=O)[C@@H](CC(C)C)NC(=O)[C@H](C)N(C)C(=O)[C@H](Cc3ccc(C(=O)O)cc3)NC(=O)[C@H](Cc3ccc(-c4ccccc4)cc3)NC(=O)[C@H](Cc3ccc(C(=O)O)cc3)NC2=O)c1 (stereo partly drawn) [Example 2552] ({CH2CO}-[Dab][Phe(4-COOH)]D[Phe(3-Me)][Phe(4-COOH)][Bip][Phe(4-COOH)][NMeA][dL][Dab][Cha][Thr(3ξ)]EC[Dab][AEEA][Aun]-OH; thioether N-14) | 18.7 |
| Cc1cccc(C[C@@H]2NC(=O)[C@H](CC(=O)O)NC(=O)[C@H](Cc3ccc(C(=O)O)cc3)NC(=O)[C@H](C(C)O)NC(=O)CSC[C@@H](C(=O)N[C@@H](CCN)C(=O)NCCOCCOCC(=O)NCCCCCCCCCCC(=O)O)NC(=O)[C@H](CCC(=O)O)NC(=O)[C@H](C(C)O)NC(=O)[C@H](CC3CCCCC3)NC(=O)[C@H](CCN)NC(=O)[C@@H](CC(C)C)NC(=O)[C@H](C)N(C)C(=O)[C@H](Cc3ccc(C(=O)O)cc3)NC(=O)[C@H](Cc3ccc(-c4ccccc4)cc3)NC(=O)[C@H](Cc3ccc(C(=O)O)cc3)NC2=O)c1 (stereo partly drawn) [Example 2555] ({CH2CO}-[Thr(3ξ)][Phe(4-COOH)]D[Phe(3-Me)][Phe(4-COOH)][Bip][Phe(4-COOH)][NMeA][dL][Dab][Cha][Thr(3ξ)]EC[Dab][AEEA][Aun]-OH; thioether N-14) | 20.2 |
| Cc1cccc(C[C@@H]2NC(=O)[C@H](CC(=O)O)NC(=O)[C@H](Cc3ccc(C(=O)O)cc3)NC(=O)[C@H](C(C)O)NC(=O)CSC[C@@H](C(=O)N[C@@H](CCN)C(=O)NCCOCCOCC(=O)NCCCCCCCCCCC(=O)O)NC(=O)[C@H](CCC(=O)O)NC(=O)[C@H](CO)NC(=O)[C@H](CC3CCCCC3)NC(=O)[C@H](CCN)NC(=O)[C@@H](CC(C)C)NC(=O)[C@H](C)N(C)C(=O)[C@H](Cc3ccc(C(=O)O)cc3)NC(=O)[C@H](Cc3ccc(-c4ccccc4)cc3)NC(=O)[C@H](Cc3ccc(C(=O)O)cc3)NC2=O)c1 (stereo partly drawn) [Example 2556] ({CH2CO}-[Thr(3ξ)][Phe(4-COOH)]D[Phe(3-Me)][Phe(4-COOH)][Bip][Phe(4-COOH)][NMeA][dL][Dab][Cha]SEC[Dab][AEEA][Aun]-OH; thioether N-14) | 41.2 |
| Cc1cccc(C[C@@H]2NC(=O)[C@H](CC(=O)O)NC(=O)[C@H](Cc3ccc(OCC(=O)O)cc3)NC(=O)[C@H](C(C)O)NC(=O)CSC[C@@H](C(=O)N[C@@H](CCN)C(=O)NCCOCCOCC(=O)NCCCCCCCCCCC(=O)O)NC(=O)[C@H](CC(=O)O)NC(=O)[C@H](C(C)C)NC(=O)[C@H](CC3CCCCC3)NC(=O)[C@H](CCN)NC(=O)[C@@H](CC(C)C)NC(=O)[C@H](C)N(C)C(=O)[C@H](Cc3ccc(OCC(=O)O)cc3)NC(=O)[C@H](Cc3ccc(-c4ccccc4)cc3)NC(=O)[C@H](Cc3ccc(OCC(=O)O)cc3)NC2=O)c1 (stereo partly drawn) [Example 2558] ({CH2CO}-[Thr(3ξ)]Y(Carboxymethyl)D[Phe(3-Me)]Y(Carboxymethyl)[Bip]Y(Carboxymethyl)[NMeA][dL][Dab][Cha]VDC[Dab][AEEA][Aun]-OH; thioether N-14) | 11.6 |
| Cc1cccc(C[C@@H]2NC(=O)[C@H](CC(=O)O)NC(=O)[C@H](Cc3ccc(OCC(=O)O)cc3)NC(=O)[C@H](Cc3ccc(F)cc3)NC(=O)CSC[C@@H](C(=O)N[C@@H](CCN)C(=O)NCCOCCOCC(=O)NCCCCCCCCCCC(=O)O)NC(=O)[C@H](CC(=O)O)NC(=O)[C@H](C(C)C)NC(=O)[C@H](CC3CCCCC3)NC(=O)[C@H](CCN)NC(=O)[C@@H](CC(C)C)NC(=O)[C@H](C)N(C)C(=O)[C@H](Cc3ccc(OCC(=O)O)cc3)NC(=O)[C@H](Cc3ccc(-c4ccccc4)cc3)NC(=O)[C@H](Cc3ccc(OCC(=O)O)cc3)NC2=O)c1 [Example 2559] ({CH2CO}-[Phe(4-F)]Y(Carboxymethyl)D[Phe(3-Me)]Y(Carboxymethyl)[Bip]Y(Carboxymethyl)[NMeA][dL][Dab][Cha]VDC[Dab][AEEA][Aun]-OH; thioether N-14) | 28.6 |

Compounds with a lower IC50, results first:

| IC50 [nM] | Compound |
| --- | --- |
| 8.6 | Cc1cccc(C[C@@H]2NC(=O)[C@H](CC(=O)O)NC(=O)[C@H](Cc3ccc(C(=O)O)cc3)NC(=O)[C@H](CCN)NC(=O)CSC[C@@H](C(=O)N[C@@H](CCN)C(=O)NCCCCCCCCCCC(=O)O)NC(=O)[C@H](Cc3cnc[nH]3)NC(=O)[C@H](C(C)(C)O)NC(=O)[C@H](CC3CCCCC3)NC(=O)[C@H](CCN)NC(=O)[C@@H](CC(C)C)NC(=O)[C@H](C)N(C)C(=O)[C@H](Cc3ccc(C(=O)O)cc3)NC(=O)[C@H](Cc3ccc(-c4ccccc4)cc3)NC(=O)[C@H](Cc3ccc(C(=O)O)cc3)NC2=O)c1 [Example 2554] ({CH2CO}-[Dab][Phe(4-COOH)]D[Phe(3-Me)][Phe(4-COOH)][Bip][Phe(4-COOH)][NMeA][dL][Dab][Cha][Val(3-OH)]HC[Dab][Aun]-OH; thioether N-14) |
| 4.8 | Cc1cccc(C[C@@H]2NC(=O)[C@H](CC(=O)O)NC(=O)[C@H](Cc3ccc(OCC(=O)O)cc3)NC(=O)[C@H](C(C)O)NC(=O)CSC[C@@H](C(=O)N[C@@H](CCN)C(=O)NCCOCCOCC(=O)NCCCCCCCCCCC(=O)O)NC(=O)[C@H](CCC(=O)O)NC(=O)[C@H](C(C)C)NC(=O)[C@H](CC3CCCCC3)NC(=O)[C@H](CCN)NC(=O)[C@@H](CC(C)C)NC(=O)[C@H](C)N(C)C(=O)[C@H](Cc3ccc(C(=O)O)cc3)NC(=O)[C@H](Cc3ccc(-c4ccccc4)cc3)NC(=O)[C@H](Cc3ccc(C(=O)O)cc3)NC2=O)c1 (stereo partly drawn) [Example 2553] ({CH2CO}-[Thr(3ξ)]Y(Carboxymethyl)D[Phe(3-Me)][Phe(4-COOH)][Bip][Phe(4-COOH)][NMeA][dL][Dab][Cha]VEC[Dab][AEEA][Aun]-OH; thioether N-14) |
| 0.7 | Cc1cccc(C[C@@H]2NC(=O)[C@H](CC(=O)O)NC(=O)[C@H](Cc3ccc(C(=O)O)cc3)NC(=O)[C@H](C(C)O)NC(=O)CSC[C@@H](C(=O)N[C@@H](CCN)C(=O)NCCOCCOCC(=O)NCCCCCCCCCCC(=O)O)NC(=O)[C@H](CC(=O)O)NC(=O)[C@H](C(C)C)NC(=O)[C@H](CC3CCCCC3)NC(=O)[C@H](CCN)NC(=O)[C@@H](CC(C)C)NC(=O)[C@H](C)N(C)C(=O)[C@H](Cc3ccc(C(=O)O)cc3)NC(=O)[C@H](Cc3ccc(-c4ccccc4)cc3)NC(=O)[C@H](Cc3ccc(C(=O)O)cc3)NC2=O)c1 (stereo partly drawn) [Example 2557] ({CH2CO}-[Thr(3ξ)][Phe(4-COOH)]D[Phe(3-Me)][Phe(4-COOH)][Bip][Phe(4-COOH)][NMeA][dL][Dab][Cha]VDC[Dab][AEEA][Aun]-OH; thioether N-14) |

Reference: US20260070945A1, “MACROCYCLIC IMMUNOMODULATORS” (Bristol-Myers Squibb Company, priority 2022, published 2026)
